Here are results for 13 molecules from ChEMBL document CHEMBL5291721, “A preclinical secondary pharmacology resource illuminates target-adverse drug reaction associations of marketed drugs” (Nat Commun, 2023).

Assay [1] addresses T1, Amine oxidase [flavin-containing] A (Homo sapiens, UniProt P21397).
T1 sequence (P21397 whole entry): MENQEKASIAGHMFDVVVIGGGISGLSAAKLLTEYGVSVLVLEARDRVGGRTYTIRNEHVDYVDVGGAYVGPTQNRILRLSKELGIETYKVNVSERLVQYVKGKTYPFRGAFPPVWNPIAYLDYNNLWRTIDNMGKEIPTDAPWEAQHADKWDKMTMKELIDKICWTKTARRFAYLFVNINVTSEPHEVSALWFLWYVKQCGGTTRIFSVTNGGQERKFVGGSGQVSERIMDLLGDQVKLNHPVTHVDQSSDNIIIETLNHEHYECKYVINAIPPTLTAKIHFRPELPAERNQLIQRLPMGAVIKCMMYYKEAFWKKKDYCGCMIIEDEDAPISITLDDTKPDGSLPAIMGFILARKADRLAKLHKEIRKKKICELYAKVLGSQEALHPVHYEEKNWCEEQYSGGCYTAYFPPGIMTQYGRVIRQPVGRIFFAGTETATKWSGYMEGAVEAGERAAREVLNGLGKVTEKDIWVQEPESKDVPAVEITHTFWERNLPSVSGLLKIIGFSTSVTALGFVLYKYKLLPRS
The format is functional.

Assay [2] has as its target 5-hydroxytryptamine receptor 2B (Homo sapiens, UniProt P41595). The class given is functional, cell-based.
Assay [3] has as its target T2, Equilibrative nucleoside transporter 1 (Homo sapiens, UniProt Q99808).
T2 sequence (Q99808 whole entry): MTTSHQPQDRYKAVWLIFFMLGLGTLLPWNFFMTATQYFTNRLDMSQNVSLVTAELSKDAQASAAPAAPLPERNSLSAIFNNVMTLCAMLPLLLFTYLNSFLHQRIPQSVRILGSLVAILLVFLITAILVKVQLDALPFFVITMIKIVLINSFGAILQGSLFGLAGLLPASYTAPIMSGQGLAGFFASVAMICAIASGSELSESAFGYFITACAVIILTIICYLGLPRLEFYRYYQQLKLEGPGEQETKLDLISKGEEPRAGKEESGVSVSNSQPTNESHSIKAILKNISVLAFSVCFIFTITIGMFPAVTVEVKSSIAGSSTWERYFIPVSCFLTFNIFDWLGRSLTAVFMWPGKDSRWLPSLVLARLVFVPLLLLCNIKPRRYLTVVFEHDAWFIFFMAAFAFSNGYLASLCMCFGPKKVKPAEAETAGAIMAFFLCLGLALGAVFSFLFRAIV

The target in assay [4] is Gamma-aminobutyric acid receptor subunit alpha-1 (Rattus norvegicus, UniProt P62813). The class given is functional.
Chain of Gamma-aminobutyric acid receptor subunit alpha-1 (P62813 whole entry): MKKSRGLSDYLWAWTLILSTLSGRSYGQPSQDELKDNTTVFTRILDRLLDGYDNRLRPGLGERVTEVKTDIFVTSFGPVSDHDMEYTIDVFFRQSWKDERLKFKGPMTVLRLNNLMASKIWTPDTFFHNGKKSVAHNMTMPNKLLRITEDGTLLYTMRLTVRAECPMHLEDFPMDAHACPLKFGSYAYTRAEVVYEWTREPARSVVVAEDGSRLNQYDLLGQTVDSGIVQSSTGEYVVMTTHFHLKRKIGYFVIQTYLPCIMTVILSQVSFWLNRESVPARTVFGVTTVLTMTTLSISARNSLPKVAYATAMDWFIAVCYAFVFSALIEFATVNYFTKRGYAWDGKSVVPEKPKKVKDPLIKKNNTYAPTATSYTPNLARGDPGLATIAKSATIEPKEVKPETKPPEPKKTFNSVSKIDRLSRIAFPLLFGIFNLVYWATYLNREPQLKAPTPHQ
For assay [5], the target named is Beta-1 adrenergic receptor (Homo sapiens, UniProt P08588). The class given is functional.
Chain of Beta-1 adrenergic receptor (P08588 whole entry): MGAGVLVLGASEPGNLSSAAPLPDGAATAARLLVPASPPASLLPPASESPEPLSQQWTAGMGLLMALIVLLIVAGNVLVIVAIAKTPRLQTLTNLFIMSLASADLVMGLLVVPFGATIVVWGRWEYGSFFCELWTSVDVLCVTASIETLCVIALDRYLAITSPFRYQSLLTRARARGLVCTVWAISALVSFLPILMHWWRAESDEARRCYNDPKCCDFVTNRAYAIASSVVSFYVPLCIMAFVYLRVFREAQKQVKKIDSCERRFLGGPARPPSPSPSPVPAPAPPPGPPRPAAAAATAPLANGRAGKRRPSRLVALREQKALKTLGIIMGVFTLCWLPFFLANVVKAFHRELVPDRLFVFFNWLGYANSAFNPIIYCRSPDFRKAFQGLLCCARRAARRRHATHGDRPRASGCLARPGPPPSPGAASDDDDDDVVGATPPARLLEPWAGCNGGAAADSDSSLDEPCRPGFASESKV
For assay [6], the target named is Sodium-dependent noradrenaline transporter (Homo sapiens, UniProt P23975).
Chain of Sodium-dependent noradrenaline transporter (P23975 whole entry): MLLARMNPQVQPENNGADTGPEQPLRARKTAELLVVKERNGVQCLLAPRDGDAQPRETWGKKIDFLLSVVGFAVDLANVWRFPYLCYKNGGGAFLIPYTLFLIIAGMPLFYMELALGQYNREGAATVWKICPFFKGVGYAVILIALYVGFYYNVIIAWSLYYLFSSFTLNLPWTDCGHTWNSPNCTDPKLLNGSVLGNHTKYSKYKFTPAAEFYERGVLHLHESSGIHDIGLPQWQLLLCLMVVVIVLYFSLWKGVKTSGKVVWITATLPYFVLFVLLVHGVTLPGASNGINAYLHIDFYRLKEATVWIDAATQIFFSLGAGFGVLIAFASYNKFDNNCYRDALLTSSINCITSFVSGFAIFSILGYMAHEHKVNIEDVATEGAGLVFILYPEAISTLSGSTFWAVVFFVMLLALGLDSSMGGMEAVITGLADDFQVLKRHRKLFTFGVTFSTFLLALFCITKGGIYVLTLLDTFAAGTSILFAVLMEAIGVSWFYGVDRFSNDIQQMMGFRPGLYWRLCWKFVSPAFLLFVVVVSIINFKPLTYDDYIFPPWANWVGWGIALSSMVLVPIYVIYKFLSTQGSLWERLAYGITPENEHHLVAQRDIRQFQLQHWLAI
In the next assay the target is Histamine H2 receptor (Homo sapiens, UniProt P25021). The format is functional, cell-based.
Chain of Histamine H2 receptor (P25021 whole entry): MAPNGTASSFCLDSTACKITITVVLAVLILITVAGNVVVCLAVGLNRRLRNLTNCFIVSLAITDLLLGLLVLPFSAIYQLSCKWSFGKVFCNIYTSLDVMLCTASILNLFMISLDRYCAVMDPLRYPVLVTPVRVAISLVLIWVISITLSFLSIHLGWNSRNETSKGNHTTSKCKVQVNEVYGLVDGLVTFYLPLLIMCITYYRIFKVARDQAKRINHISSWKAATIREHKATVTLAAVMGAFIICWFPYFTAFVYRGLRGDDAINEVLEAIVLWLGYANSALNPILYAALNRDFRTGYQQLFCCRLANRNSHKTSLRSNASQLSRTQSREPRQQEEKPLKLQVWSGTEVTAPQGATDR
A further assay deals with Cannabinoid receptor 1 (Homo sapiens, UniProt P21554). The format is functional, cell-based.
Chain of Cannabinoid receptor 1 (P21554 whole entry): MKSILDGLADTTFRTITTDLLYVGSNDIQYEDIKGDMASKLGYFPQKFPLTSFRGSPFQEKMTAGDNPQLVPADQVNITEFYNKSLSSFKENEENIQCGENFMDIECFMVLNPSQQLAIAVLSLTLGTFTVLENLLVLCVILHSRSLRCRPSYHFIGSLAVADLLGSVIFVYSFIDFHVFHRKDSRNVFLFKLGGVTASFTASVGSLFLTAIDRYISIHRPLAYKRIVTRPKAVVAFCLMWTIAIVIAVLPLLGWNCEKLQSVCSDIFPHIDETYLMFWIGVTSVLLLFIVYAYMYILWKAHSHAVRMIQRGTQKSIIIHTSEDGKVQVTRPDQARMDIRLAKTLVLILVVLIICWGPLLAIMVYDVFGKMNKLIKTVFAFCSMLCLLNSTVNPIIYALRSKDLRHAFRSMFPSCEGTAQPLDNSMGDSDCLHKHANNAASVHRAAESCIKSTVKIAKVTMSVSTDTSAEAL
Assay [7] has as its target T3, Muscarinic acetylcholine receptor M1 (Homo sapiens, UniProt P11229).
T3 sequence (P11229 whole entry): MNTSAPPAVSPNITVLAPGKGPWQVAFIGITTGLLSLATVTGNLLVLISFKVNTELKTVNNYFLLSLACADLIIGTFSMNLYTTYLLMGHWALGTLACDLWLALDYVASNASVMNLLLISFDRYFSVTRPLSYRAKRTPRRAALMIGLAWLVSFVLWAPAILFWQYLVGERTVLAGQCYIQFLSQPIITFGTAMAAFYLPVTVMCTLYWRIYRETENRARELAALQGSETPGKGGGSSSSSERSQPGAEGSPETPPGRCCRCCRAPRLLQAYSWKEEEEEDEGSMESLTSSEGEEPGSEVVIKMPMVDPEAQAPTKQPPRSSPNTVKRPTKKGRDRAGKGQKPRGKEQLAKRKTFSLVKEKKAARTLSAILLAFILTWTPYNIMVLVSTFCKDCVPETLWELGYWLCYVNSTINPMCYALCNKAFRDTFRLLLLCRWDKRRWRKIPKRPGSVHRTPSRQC
The class given is functional, cell-based.

The target in the next assay is Vasopressin V2 receptor (Homo sapiens, UniProt P30518).
Chain of Vasopressin V2 receptor (P30518 whole entry): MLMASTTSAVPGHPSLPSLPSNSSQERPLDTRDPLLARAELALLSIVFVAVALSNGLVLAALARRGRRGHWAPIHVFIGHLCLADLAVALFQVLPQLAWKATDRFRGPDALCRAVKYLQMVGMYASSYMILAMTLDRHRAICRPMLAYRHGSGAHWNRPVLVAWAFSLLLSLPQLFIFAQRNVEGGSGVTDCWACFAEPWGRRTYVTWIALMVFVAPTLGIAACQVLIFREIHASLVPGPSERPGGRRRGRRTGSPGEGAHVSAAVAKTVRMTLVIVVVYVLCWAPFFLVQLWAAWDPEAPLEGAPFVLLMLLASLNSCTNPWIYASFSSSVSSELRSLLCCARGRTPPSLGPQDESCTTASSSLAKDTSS
In assay [8] the target is cGMP-inhibited 3',5'-cyclic phosphodiesterase 3A (Homo sapiens, UniProt Q14432). The class given is functional.
The target in assay [9] is T4, Neuropeptide Y receptor type 1 (Homo sapiens, UniProt P25929).
T4 sequence (P25929 whole entry): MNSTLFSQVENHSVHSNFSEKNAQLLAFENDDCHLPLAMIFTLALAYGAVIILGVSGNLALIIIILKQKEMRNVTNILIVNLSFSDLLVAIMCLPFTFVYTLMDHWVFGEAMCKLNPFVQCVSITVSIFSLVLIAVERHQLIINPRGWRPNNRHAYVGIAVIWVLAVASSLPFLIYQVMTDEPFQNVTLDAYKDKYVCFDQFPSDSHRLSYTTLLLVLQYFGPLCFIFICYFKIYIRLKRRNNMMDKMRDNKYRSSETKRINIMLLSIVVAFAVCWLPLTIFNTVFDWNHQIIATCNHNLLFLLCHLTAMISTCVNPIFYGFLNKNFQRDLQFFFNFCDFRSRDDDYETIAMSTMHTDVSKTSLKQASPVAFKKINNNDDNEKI

Assay [10] deals with Delta-type opioid receptor (Homo sapiens, UniProt P41143).
Chain of Delta-type opioid receptor (P41143 whole entry): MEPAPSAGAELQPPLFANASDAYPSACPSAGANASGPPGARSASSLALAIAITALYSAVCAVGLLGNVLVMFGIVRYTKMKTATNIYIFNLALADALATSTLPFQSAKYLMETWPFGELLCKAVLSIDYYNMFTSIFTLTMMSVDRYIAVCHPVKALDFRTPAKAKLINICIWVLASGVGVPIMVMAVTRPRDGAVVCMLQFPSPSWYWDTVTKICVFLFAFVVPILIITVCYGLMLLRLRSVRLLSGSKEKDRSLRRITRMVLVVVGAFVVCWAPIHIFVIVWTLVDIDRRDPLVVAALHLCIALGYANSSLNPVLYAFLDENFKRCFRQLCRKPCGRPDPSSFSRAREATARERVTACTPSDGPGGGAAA
For assay [11], the target named is Sodium-dependent serotonin transporter (Homo sapiens, UniProt P31645).
Chain of Sodium-dependent serotonin transporter (P31645 whole entry): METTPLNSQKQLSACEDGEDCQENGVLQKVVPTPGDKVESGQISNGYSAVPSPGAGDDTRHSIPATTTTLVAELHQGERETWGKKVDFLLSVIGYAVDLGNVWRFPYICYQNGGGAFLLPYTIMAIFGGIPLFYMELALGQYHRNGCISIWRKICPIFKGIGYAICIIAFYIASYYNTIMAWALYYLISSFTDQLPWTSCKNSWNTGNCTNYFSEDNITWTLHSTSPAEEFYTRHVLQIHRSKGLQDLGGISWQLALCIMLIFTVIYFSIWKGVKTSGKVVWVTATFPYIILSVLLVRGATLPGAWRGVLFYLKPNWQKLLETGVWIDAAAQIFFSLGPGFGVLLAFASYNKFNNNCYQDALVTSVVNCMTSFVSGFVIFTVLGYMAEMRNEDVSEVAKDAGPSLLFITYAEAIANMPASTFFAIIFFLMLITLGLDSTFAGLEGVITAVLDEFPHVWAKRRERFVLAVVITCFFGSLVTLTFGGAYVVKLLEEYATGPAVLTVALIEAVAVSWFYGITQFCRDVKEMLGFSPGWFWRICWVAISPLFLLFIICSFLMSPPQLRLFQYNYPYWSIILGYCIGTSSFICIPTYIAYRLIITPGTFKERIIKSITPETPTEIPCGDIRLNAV
Assay [12] concerns the target T3, Muscarinic acetylcholine receptor M1. The format is functional, cell-based. The source holds these as a separate data set.

By AC50 is commonly meant the midpoint of the concentration-response curve, whichever way the signal moves. Read a low AC50 as greater potency.
Note: assay procedure not described here.

Chain of 5-hydroxytryptamine receptor 2B (P41595 whole entry): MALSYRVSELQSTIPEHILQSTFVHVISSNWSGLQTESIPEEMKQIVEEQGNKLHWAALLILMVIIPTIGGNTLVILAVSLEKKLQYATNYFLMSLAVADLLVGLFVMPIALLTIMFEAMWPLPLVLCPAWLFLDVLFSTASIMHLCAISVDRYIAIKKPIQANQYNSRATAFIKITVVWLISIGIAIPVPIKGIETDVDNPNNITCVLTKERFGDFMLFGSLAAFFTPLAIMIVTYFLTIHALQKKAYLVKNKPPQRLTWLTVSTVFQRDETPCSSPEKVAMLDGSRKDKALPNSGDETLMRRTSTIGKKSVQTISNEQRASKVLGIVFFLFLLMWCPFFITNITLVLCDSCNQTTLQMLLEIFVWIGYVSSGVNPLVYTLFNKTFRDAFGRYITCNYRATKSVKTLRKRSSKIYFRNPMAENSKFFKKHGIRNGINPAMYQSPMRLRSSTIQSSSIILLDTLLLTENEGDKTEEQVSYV

Consider `CCCc1nc2c(C)cc(-c3nc4ccccc4n3C)cc2n1Cc1ccc(-c2ccccc2C(=O)O)cc1`, for which the AC50 in assay [1], in assay [2], in assay [3], in assay [4], in assay [5] and in assay [6] was greater than 30 µM throughout. Also, the concentration at half-maximal activity (AC50) was greater than 10 µM at Histamine H2 receptor; greater than 10 µM at Cannabinoid receptor 1; 17.6 µM in assay [7]; greater than 30 µM on Vasopressin V2 receptor; greater than 30 µM in assay [8]; greater than 30 µM in [9].
`CC(C)NC(=N)NC(=N)Nc1ccc(Cl)c(Cl)c1` [CHLORPROGUANIL]: the half-maximal activity concentration (AC50) (in [1]; in assay [2]; in assay [10]; in assay [4]; at Histamine H2 receptor; on Cannabinoid receptor 1) was greater than 30 µM each time. In addition, the AC50 in assay [8] was greater than 30 µM; in assay [11], 5.81 µM.
In the case of `CCC(=O)O[C@]1(C(=O)CCl)[C@@H](C)C[C@H]2[C@@H]3CCC4=CC(=O)C=C[C@]4(C)[C@@]3(F)[C@@H](O)C[C@@]21C` [CLOBETASOL PROPIONATE], the AC50 in assay [1], in assay [2], in assay [10], in [3], in [4] and in assay [5] was greater than 30 µM each time. Further, the half-maximal activity concentration (AC50) was greater than 30 µM in assay [6]; greater than 30 µM on Histamine H2 receptor; greater than 30 µM at Cannabinoid receptor 1; greater than 30 µM at Vasopressin V2 receptor; greater than 30 µM in assay [8]; greater than 10 µM in assay [9].
Consider `O=C(O)Cc1ccccc1Nc1c(Cl)cccc1Cl` [DICLOFENAC], for which the AC50 in [1] was greater than 10 µM; in assay [2], greater than 10 µM; in assay [10], greater than 30 µM; in assay [3], greater than 30 µM; in assay [4], greater than 10 µM; in [5] it was greater than 10 µM. Moreover, the AC50 was greater than 30 µM in [6]; greater than 10 µM on Histamine H2 receptor; greater than 30 µM at Cannabinoid receptor 1; greater than 30 µM at Vasopressin V2 receptor; greater than 30 µM in assay [8]; greater than 30 µM in assay [9].
In turn, `CN[C@@H]1[C@H](O[C@H]2[C@H](O[C@H]3[C@H](O)[C@@H](O)[C@H](NC(=N)N)[C@@H](O)[C@@H]3NC(=N)N)O[C@@H](C)[C@]2(O)CO)O[C@@H](CO)[C@H](O)[C@H]1O` [DIHYDROSTREPTOMYCIN] showed an AC50 in [11] greater than 30 µM.
Regarding `Cc1ccc(C)c(OCCCC(C)(C)C(=O)O)c1` [GEMFIBROZIL], the half-maximal activity concentration (AC50) in assay [1] is greater than 10 µM; in assay [2], greater than 10 µM; in assay [10], greater than 30 µM; in [3], greater than 30 µM; in assay [4], greater than 10 µM; in [5], greater than 10 µM. Also, the AC50 in assay [6] is greater than 10 µM; at Histamine H2 receptor, greater than 10 µM; on Cannabinoid receptor 1, greater than 30 µM; at Vasopressin V2 receptor, greater than 30 µM; in assay [8], greater than 30 µM; in assay [9], greater than 30 µM.
As to `C#C[C@]1(O)C=C[C@H]2[C@@H]3CCC4=CC(=O)CC[C@@H]4[C@H]3CC[C@@]21CC` [GESTODENE], the AC50 in assay [11] is 4.59 µM.
Take `COc1ccccc1OC1(C)OC(=O)c2ccccc2O1` (stereo not given) [GUAIMESAL]: the AC50 (in assay [3]; in [5]; in assay [6]; in [7]; at Vasopressin V2 receptor; in [9]) was greater than 30 µM in each case. Besides, the concentration at half-maximal activity (AC50) in [12] is greater than 30 µM.
Consider `CC[C@H](C)C(=O)O[C@H]1C[C@@H](C)C=C2C=C[C@H](C)[C@H](CC[C@@H]3C[C@@H](O)CC(=O)O3)[C@H]21` [LOVASTATIN], for which the concentration at half-maximal activity (AC50) in assay [1] was greater than 10 µM; in assay [2] it was greater than 10 µM; in assay [10] it was greater than 30 µM; in assay [3], greater than 30 µM; in assay [4], greater than 10 µM; in assay [5] it was greater than 10 µM. The concentration at half-maximal activity (AC50) in assay [6] was greater than 10 µM; on Histamine H2 receptor it was greater than 10 µM; on Cannabinoid receptor 1, greater than 30 µM; at Vasopressin V2 receptor, greater than 30 µM; in [8], greater than 30 µM; in assay [9] it was greater than 30 µM.
With `CC(CN1c2ccccc2Sc2ccccc21)N(C)C` (stereo not given) [PROMETHAZINE], the AC50 in [1] is greater than 10 µM; in assay [2] it was greater than 10 µM; in assay [10], greater than 30 µM; in assay [3], greater than 30 µM; in assay [4] it was greater than 10 µM; in assay [5] it was greater than 10 µM. The concentration at half-maximal activity (AC50) is 0.81 µM in [6]; greater than 10 µM at Histamine H2 receptor; greater than 30 µM on Cannabinoid receptor 1; greater than 30 µM at Vasopressin V2 receptor; greater than 30 µM in assay [8]; greater than 30 µM in assay [9].
Take `Cn1cc(C(=O)[C@@H]2CCc3nc[nH]c3C2)c2ccccc21` [RAMOSETRON]: the AC50 in assay [1] is greater than 30 µM; in [2] it was greater than 30 µM; in assay [10] it was greater than 30 µM; in assay [3], greater than 30 µM; in [4] it was 17 µM; in [5], greater than 30 µM. For the same molecule, the AC50 (in assay [6]; on Histamine H2 receptor; at Cannabinoid receptor 1; on Vasopressin V2 receptor; in [8]; in [9]) was greater than 30 µM in each case.
For the molecule `CN(CCOc1ccc(CC2SC(=O)NC2=O)cc1)c1ccccn1` (stereo not given) [ROSIGLITAZONE], the AC50 in assay [1] is 8 µM; in assay [2], greater than 30 µM; in assay [10], greater than 30 µM; in assay [3] it was greater than 30 µM; in assay [4], greater than 30 µM; in [5] it was greater than 30 µM. Besides, the AC50 (in [6]; on Histamine H2 receptor; at Cannabinoid receptor 1; on Vasopressin V2 receptor; in assay [8]; in assay [9]) was greater than 30 µM each time.
Consider `CC(C)[C@H](N)C(=O)OCCOCn1cnc2c(=O)[nH]c(N)nc21` [VALACYCLOVIR], for which the AC50 in assay [1] is greater than 10 µM; in assay [2], greater than 10 µM; in assay [10], greater than 30 µM; in assay [3], greater than 30 µM; in assay [4], greater than 10 µM; in [5], greater than 10 µM. The AC50 in assay [6] was greater than 10 µM; on Histamine H2 receptor, greater than 10 µM; at Cannabinoid receptor 1, greater than 30 µM; on Vasopressin V2 receptor, greater than 30 µM; in assay [8], greater than 30 µM; in assay [9], greater than 30 µM.
